The values below come from ChEMBL document CHEMBL2146462, “Tyrosinase inhibitory activity of a 6-isoprenoid-substituted flavanone isolated from Dalea elegans” (Bioorg Med Chem, 2011).

A word on the IC50: it is the concentration that gives 50% inhibition. A lower IC50 goes with greater potency in that assay. What is called Ki is the dissociation constant of the complex between target and ligand, obtained from inhibition or displacement.

Molecules are shown by their SMILES. Activity calls are given as the source filed them. No cut-off for these calls is given here.

Experiment [1] concerns the target T1, Tyrosinase (Agaricus bisporus, UniProt O42713).
T1 sequence (O42713 whole entry): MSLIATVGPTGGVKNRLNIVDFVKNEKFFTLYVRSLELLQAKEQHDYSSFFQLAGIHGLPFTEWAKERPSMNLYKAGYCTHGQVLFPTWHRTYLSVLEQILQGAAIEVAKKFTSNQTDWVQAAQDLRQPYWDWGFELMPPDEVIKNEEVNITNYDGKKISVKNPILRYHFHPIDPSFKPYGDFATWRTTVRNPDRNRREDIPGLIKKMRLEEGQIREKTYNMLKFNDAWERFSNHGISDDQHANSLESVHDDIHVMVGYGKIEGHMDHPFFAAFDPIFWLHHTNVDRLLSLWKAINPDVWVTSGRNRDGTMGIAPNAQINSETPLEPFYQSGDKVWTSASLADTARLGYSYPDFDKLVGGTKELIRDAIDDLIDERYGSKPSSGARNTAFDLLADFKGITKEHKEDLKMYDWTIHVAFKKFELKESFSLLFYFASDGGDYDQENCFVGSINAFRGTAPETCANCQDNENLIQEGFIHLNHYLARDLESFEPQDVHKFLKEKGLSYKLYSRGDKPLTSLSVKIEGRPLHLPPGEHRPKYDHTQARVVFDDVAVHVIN

Experiment [2] concerns the target T1, Tyrosinase. The source holds these as a separate data set.
Description: Inhibition of mushroom tyrosinase using as L-DOPA substrate after 2 mins by spectrophotometric analysis
The target in experiment [3] is T2, Tyrosinase (Agaricus bisporus) (UniProt O42713).
T2 sequence (whole entry): T1 sequence (O42713 whole entry)
In words: Potency index, ratio IC50 for (Z,Z)-5-trideca-4,7-dienyl)-resorcinol to compound against mushroom tyrosinase assessed as inhibition constant for compound-free enzyme using as L-tyrosine substrate by spectrophotometric analysis.

Experiment [4] concerns the target T2, Tyrosinase (Agaricus bisporus). The experiment can be described thus: Potency index, ratio IC50 for hydroquinone to compound against mushroom tyrosinase using as L-tyrosine substrate after 10 mins by spectrophotometric analysis.
Experiment [5] shares this target. The experiment can be described thus: Potency index, ratio IC50 for hydroquinone to compound against mushroom tyrosinase using as […] substrate after 10 mins by spectrophotometric analysis.
The target in experiment [6] is T1, Tyrosinase. In words: Inhibition of mushroom tyrosinase assessed as inhibition constant for compound-free enzyme using as […] substrate by spectrophotometric analysis.
For experiment [7], the target named is T2, Tyrosinase (Agaricus bisporus). The experiment can be described thus: Potency index, ratio IC50 for arbutin to compound against mushroom tyrosinase assessed as inhibition constant for compound-free enzyme using as L-tyrosine substrate by spectrophotometric analysis.
For experiment [8] the target is unchanged. In words: Reversible inhibition of mushroom tyrosinase using L-DOPA substrate by spectrophotometric analysis.
In experiment [9] the target is T1, Tyrosinase. The source holds these as a separate data set.
Description: Inhibition of mushroom tyrosinase using as L-tyrosine substrate after 10 mins by spectrophotometric analysis
The target in experiment [10] is T2, Tyrosinase (Agaricus bisporus). The experiment can be described thus: Potency index, ratio IC50 for kojic acid to compound against mushroom tyrosinase using as L-tyrosine substrate after 10 mins by spectrophotometric analysis.
Experiment [11] shares this target. The experiment can be described thus: Reversible inhibition of mushroom tyrosinase using L-tyrosine substrate by spectrophotometric analysis.
Experiment [12] concerns the target T1, Tyrosinase. The experiment can be described thus: Inhibition of mushroom tyrosinase assessed as inhibition constant for compound-enzyme-substrate complex using as […] substrate by spectrophotometric analysis.
The target of experiment [13] is T2, Tyrosinase (Agaricus bisporus). The experiment can be described thus: Competitive inhibition of mushroom tyrosinase using L-tyrosine substrate by Lineweaver-Burk double reciprocal plot analysis.
Experiment [14] has as its target T1, Tyrosinase. The experiment can be described thus: Inhibition of mushroom tyrosinase assessed as inhibition constant for compound-free enzyme using as L-tyrosine substrate by spectrophotometric analysis.
The target in experiment [15] is T2, Tyrosinase (Agaricus bisporus). In words: Inhibition of mushroom tyrosinase assessed as lag time for L-tyrosine oxidation at 5.51 uM by spectrophotometric analysis.
Experiment [16] shares this target. In words: Potency index, ratio Ki for kojic acid to compound against mushroom tyrosinase diphenolase activity.
For experiment [17] the target is unchanged. The experiment can be described thus: Potency index, ratio IC50 for ascorbic acid to compound against mushroom tyrosinase assessed as inhibition constant for compound-free enzyme using as L-tyrosine substrate by spectrophotometric analysis.
For experiment [18] the target is unchanged. The experiment can be described thus: Noncompetitive inhibition of mushroom tyrosinase using […] substrate by Lineweaver-Burk double reciprocal plot analysis.
For experiment [19] the target is unchanged. In words: […] mixed-I type inhibition of mushroom tyrosinase using L-tyrosine substrate by Lineweaver-Burk double reciprocal plot analysis.
The target is the same in experiment [20]. In words: Inhibition of mushroom tyrosinase assessed as reduction in reaction rate of L-tyrosine oxidation by spectrophotometric analysis.
Experiment [21] can be described thus: Metal chelating activity of the compound assessed as formation of copper complex at 84.66 uM after 1 min by UV-vis spectroscopy. The format is functional.
Experiment [22] addresses T1, Tyrosinase. In words: Inhibition of mushroom tyrosinase assessed as inhibition constant for compound-enzyme-substrate complex using as L-tyrosine substrate by spectrophotometric analysis.
Experiment [23] addresses T2, Tyrosinase (Agaricus bisporus). The experiment can be described thus: Potency index, ratio Ki for kojic acid to compound against mushroom tyrosinase assessed as inhibition constant for compound-free enzyme using as L-tyrosine substrate by spectrophotometric analysis.

With `CCCCC/C=C\C/C=C\CCCc1cc(O)cc(O)c1`, the IC50 against Tyrosinase [1] is 1.7 µM; at Tyrosinase [2], 51.9 µM.

Turning to `CC1(C)C=Cc2c(cc3c(c2O)C(=O)CC(c2ccc(O)cc2O)O3)O1` (centres undefined) [DALENIN], the Ratio IC50 worked out at 3 in [3]; 52 in [4]; 59 in experiment [5]; 285 in experiment [7]; 495 in experiment [10]; 7 in [17]. Moreover, the Ki on Tyrosinase [6] is 160 µM; at Tyrosinase [12], 160 µM; on Tyrosinase [14] it was 1.98 µM; on Tyrosinase [22] it was 7.6 µM. The inhibition result in experiment [8], in experiment [11], in experiment [13], in [18], in experiment [19] and in [20] was “Active” in each case. Also, the IC50 against Tyrosinase [9] stood at 0.26 µM; at Tyrosinase [2], 18.6 µM. In addition, the TIME in experiment [15] is 0.167 h. Further, the Ratio Ki in experiment [16] was 8; in experiment [23] it was 15. Besides, in [21], the result was Active.

`Oc1ccc(O)cc1` [HYDROQUINONE]: the IC50 was found to be 13.5 µM on Tyrosinase [9] and 1090 µM at Tyrosinase [2].

As to `O=S([O-])O.[Na+]` [SODIUM BISULFITE], the IC50 against Tyrosinase [1] was found to be 210 µM.

As to `O=C1CC(c2ccc(O)cc2O)Oc2cc(O)cc(O)c21` (centres undefined) [STEPPOGENIN], the figures for the IC50 against Tyrosinase [9] and on Tyrosinase [2] were 1.3 µM and 26.5 µM, respectively.
